# According to patent US4656288A, “Antibiotics, their production and use” (Takeda Chemical Industries, Ltd., priority 1984, dated 1987):
# Structures can show the parent of a compound that is named as a salt.
# Key:
# [1] = Interconversion of HPLC peaks A and B on standing in buffers; assay type: physicochemical; settings: buffers of pH 3, 5 and 7 at room temperature
# Description: TAN-588 as obtained in this manner has two peaks on the reverse-phase HPLC. These peaks are temporarily referred to as A and B, respectively, whereby the phenomena to be described in the following are observed. […] Therefore, it is thought impossible to separate TAN-588 itself into A and B by means of the presently known separation techniques. However, the conversion of TAN-588 into the p-nitrobenzyl ester or benzhydryl derivative makes it possible for such a compound to be separated into the A type and B type of the compound, respectively.
# Penicillinase = target: T1, Penicillinase (Bacillus cereus, UniProt P10424); test: Stability against β-lactamase (penicillinase), test microorganism Escherichia coli PG 8; assay type: biochemical; settings: Penicillinase derived from Bacillus cereus, -- = No inhibition zone indicated
# T1 construct: purchased Calbio Chemical Co. of U.S.A
# T1 sequence (P10424 44-306): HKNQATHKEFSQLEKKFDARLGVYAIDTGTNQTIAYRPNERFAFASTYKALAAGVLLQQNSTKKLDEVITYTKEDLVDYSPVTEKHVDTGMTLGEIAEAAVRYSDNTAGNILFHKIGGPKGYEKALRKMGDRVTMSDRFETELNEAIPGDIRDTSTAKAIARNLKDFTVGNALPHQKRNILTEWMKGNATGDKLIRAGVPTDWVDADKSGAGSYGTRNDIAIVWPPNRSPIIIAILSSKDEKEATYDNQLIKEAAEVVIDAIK
# Description: *^1 Derived from Bacillus cereus, produced by Calbio Chemical Co. of […]
# Escherichia coli PG 8 = test: Inhibition zone against test microorganism without addition of β-lactamase; assay type: cell-based; settings: test microorganism Escherichia coli PG 8; no β-lactamase added
# [2] = test system: Bacillus subtilis NIHJ PCI 219; test: Antimicrobial spectrum, minimal inhibitory concentration; assay type: cell-based; settings: Bacto Antibiotic Medium 3 / yeast extract / agar medium, about 10^6 colony forming units/ml
# Description: (§1) (Note 1): As the culture medium, there was used a medium consisting of
# (§2) 17.5 g of Bacto Antibiotic Medium 3 (produced by Difco Laboratories of
# (§3) U.S.A.), 5.0 g of Bacto Yeast extract (produced by Difco Laboratories of
# (§4) U.S.A.), […] of Bacto Agar (produced by Difco Laboratories of U.S.A.)
# (§5) and 1000 ml of distilled water (without adjustment of pH), while as the
# (§6) bacterial inoculation solution, there was used about 10^6 colony
# (§7) 17.5 g of Bacto Antibiotic Medium 3 (produced by Difco Laboratories,
# (§8) U.S.A.), […] of Bacto Yeast extract (produced by Difco Laboratories,
# (§9) U.S.A.), 20 g of Bacto Agar (produced by Difco Laboratories, U.S.A.) and
# (§10) 1000 ml of distilled water (without adjustment of pH), while as the
# (§11) bacterial inoculation solution, there was employed about 10^6 colony
# [3] = test system: Acinetobacter calcoaceticus IFO 13006; test: as above; assay type: cell-based; settings: IFO13006, Bacto Antibiotic Medium 3 / yeast extract / agar medium, about 10^6 colony forming units/ml
# Description: as §1, §2, §3, §4, §5, §6, §7, §8, §9, §10, §11
# [4] = test system: Staphylococcus aureus FDA 209P; test: as above; assay type: cell-based; settings: FDA209P, Bacto Antibiotic Medium 3 / yeast extract / agar medium, about 10^6 colony forming units/ml
# Description: as §1, §2, §3, §4, §5, §6, §7, §8, §9, §10, §11
# [5] = test system: Proteus vulgaris IFO 3988; test: as above; assay type: cell-based; settings: IFO3988, Bacto Antibiotic Medium 3 / yeast extract / agar medium, about 10^6 colony forming units/ml
# Description: as §1, §2, §3, §4, §5, §6, §7, §8, §9, §10, §11
# [6] = test system: Proteus morganii IFO 3168; test: as above; assay type: cell-based; settings: Morganella morganii, IFO3168, Bacto Antibiotic Medium 3 / yeast extract / agar medium, about 10^6 colony forming units/ml
# Description: as §1, §2, §3, §4, §5, §6, §7, §8, §9, §10, §11
# [7] = test system: Serratia marcescens IFO 12648; test: as above; assay type: cell-based; settings: IFO12648, Bacto Antibiotic Medium 3 / yeast extract / agar medium, about 10^6 colony forming units/ml
# Description: as §1, §2, §3, §4, §5, §6, §7, §8, §9, §10, §11
# [8] = test system: Klebsiella pneumoniae IFO 3317; test: as above; assay type: cell-based; settings: IFO3317, Bacto Antibiotic Medium 3 / yeast extract / agar medium, about 10^6 colony forming units/ml
# Description: as §1, §2, §3, §4, §5, §6, §7, §8, §9, §10, §11
# [9] = test system: Pseudomonas aeruginosa IFO 3080; test: as above; assay type: cell-based; settings: IFO3080, Bacto Antibiotic Medium 3 / yeast extract / agar medium, about 10^6 colony forming units/ml
# Description: as §1, §2, §3, §4, §5, §6, §7, §8, §9, §10, §11
# [10] = test system: Alcaligenes faecalis IFO 13111; test: as above; assay type: cell-based; settings: IFO13111, Bacto Antibiotic Medium 3 / yeast extract / agar medium, about 10^6 colony forming units/ml
# Description: as §1, §2, §3, §4, §5, §6, §7, §8, §9, §10, §11
# [11] = test system: Salmonella typhimurium IFO 12529; test: as above; assay type: cell-based; settings: Salmonella enterica, Bacto Antibiotic Medium 3 / yeast extract / agar medium, about 10^6 colony forming units/ml
# Description: as §1, §2, §3, §4, §5, §6, §7, §8, §9, §10, §11
# [12] = test system: Proteus mirabilis ATCC 21100; test: as above; assay type: cell-based; settings: ATCC21100, Bacto Antibiotic Medium 3 / yeast extract / agar medium, about 10^6 colony forming units/ml
# Description: as §1, §2, §3, §4, §5, §6, §7, §8, §9, §10, §11
# [13] = test system: Citrobacter freundii IFO 12681; test: as above; assay type: cell-based; settings: IFO12681, Bacto Antibiotic Medium 3 / yeast extract / agar medium, about 10^6 colony forming units/ml
# Description: as §1, §2, §3, §4, §5, §6, §7, §8, §9, §10, §11
# Bacillus cereus FDA 5 = test: as above; assay type: cell-based; settings: FDA5, Bacto Antibiotic Medium 3 / yeast extract / agar medium, about 10^6 colony forming units/ml
# Description: as §1, §2, §3, §4, §5, §6, §7, §8, §9, §10, §11
# [14] = test system: Escherichia coli NIHJ JC 2; test: as above; assay type: cell-based; settings: NIHJJC2, Bacto Antibiotic Medium 3 / yeast extract / agar medium, about 10^6 colony forming units/ml
# Description: as §1, §2, §3, §4, §5, §6, §7, §8, §9, §10, §11
# [15] = test system: Micrococcus luteus IFO 12708; test: as above; assay type: cell-based; settings: IFO12708, Bacto Antibiotic Medium 3 / yeast extract / agar medium, about 10^6 colony forming units/ml
# Description: as §1, §2, §3, §4, §5, §6, §7, §8, §9, §10, §11
# Solubility = assay type: physicochemical
# Cephalosporinase = Cephalosporinase (Enterobacter cloacae, UniProt P05364); test: Stability against β-lactamase (cephalosporinase), test microorganism Escherichia coli PG 8; assay type: biochemical; settings: Cephalosporinase derived from Enterobacter cloacae, -- = No inhibition zone indicated
# Cephalosporinase, sequence (P05364 21-381): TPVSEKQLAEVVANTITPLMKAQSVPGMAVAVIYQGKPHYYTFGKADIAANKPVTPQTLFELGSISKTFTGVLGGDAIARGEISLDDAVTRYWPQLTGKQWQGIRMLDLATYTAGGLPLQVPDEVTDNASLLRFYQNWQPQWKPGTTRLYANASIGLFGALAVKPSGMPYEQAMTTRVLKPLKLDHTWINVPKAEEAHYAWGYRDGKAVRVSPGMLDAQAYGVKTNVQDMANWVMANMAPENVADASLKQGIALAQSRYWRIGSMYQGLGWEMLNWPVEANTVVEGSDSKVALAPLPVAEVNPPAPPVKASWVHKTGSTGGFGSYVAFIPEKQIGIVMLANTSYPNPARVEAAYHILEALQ
# Description: *^2 Derived from Enterobacter cloacae.
# *^3 No inhibition zone indicated.
# [16] = test system: Staphylococcus aureus 308A-1; test: Therapeutic effect in the experimental mouse infection; assay type: in vivo; settings: 308A1, sc, Staphylococcus aureus 308A-1, route of administration Subcutaneous
# [17] = Stability in an aqueous solution; assay type: physicochemical
# Acute toxicity = assay type: in vivo; settings: administered subcutaneously at a dose of 400 mg/kf
smiles,measurement,setting,value
CC(=O)N[C@H]1CON(C2(C(=O)O)CCC(=O)O2)C1=O (stereo partly shown) [TAN-588],interconversion of isolated peaks A and B,[1],"A turns into B, with B turning into A, about one hour later at any pH values"
N[C@H]1CON(C2(C(=O)O)CCC(=O)O2)C1=O (stereo partly shown) [N-deacetyl TAN-588],"inhibition zone, β-Lactamase: Penicillinase",Penicillinase,24.5
same,"inhibition zone, β-Lactamase: Without addition",Escherichia coli PG 8,22.5
same,MIC,[2],12.5 µg/mL
same,MIC,[3],50 µg/mL
same,MIC,[4],50 µg/mL
same,MIC,[5],100 µg/mL
same,MIC,[6],> 100 µg/mL
same,MIC,[7],25 µg/mL
same,MIC,[8],100 µg/mL
same,MIC,[9],50 µg/mL
same,MIC,[10],100 µg/mL
same,MIC,[11],50 µg/mL
same,MIC,[12],100 µg/mL
same,MIC,[13],50 µg/mL
same,MIC,Bacillus cereus FDA 5,50 µg/mL
same,MIC,[14],25 µg/mL
same,MIC,[15],6.25 µg/mL
same,Solubility in diethyl ether,Solubility,Sparingly soluble
same,Solubility in dimethylsulfoxide,Solubility,Sparingly soluble
same,Solubility in ethyl acetate,Solubility,Sparingly soluble
same,Solubility in water,Solubility,Soluble
same,"inhibition zone, β-Lactamase: Cephalosporinase",Cephalosporinase,21.5
CC(=O)N[C@H]1CON(C2(C(=O)O)CCC(=O)O2)C1=O (stereo partly shown) [TAN-588 sodium salt],ED50,[16],25 mg/kg
same,Stability in an aqueous solution,[17]; pH 3 and 7,slightly stable
same,Stability in an aqueous solution,[17]; pH 5,Stable
same,Stability in an aqueous solution,[17]; pH 9,unstable
same,MIC,[2],3.13 µg/mL
same,MIC,[3],25 µg/mL
same,MIC,[4],3.13 µg/mL
same,MIC,[5],25 µg/mL
same,MIC,[6],100 µg/mL
same,MIC,[7],50 µg/mL
same,MIC,[8],100 µg/mL
same,MIC,[9],> 100 µg/mL
same,MIC,[10],50 µg/mL
same,MIC,[11],50 µg/mL
same,MIC,[12],25 µg/mL
same,MIC,[13],100 µg/mL
same,MIC,Bacillus cereus FDA 5,12.5 µg/mL
same,MIC,[14],50 µg/mL
same,MIC,[15],0.39 µg/mL
same,Solubility in chloroform,Solubility,Sparingly soluble
same,Solubility in diethyl ether,Solubility,Sparingly soluble
same,Solubility in dimethylsulfoxide,Solubility,Soluble
same,Solubility in ethyl acetate,Solubility,Sparingly soluble
same,Solubility in water,Solubility,Soluble
same,acute toxicity,Acute toxicity,no acute toxicity
CC1(C)S[C@@H]2[C@H](NC(=O)Cc3ccccc3)C(=O)N2[C@H]1C(=O)O [PCG],"inhibition zone, β-Lactamase: Without addition",Escherichia coli PG 8,22
N[C@H]1CON([C@@]2(C(=O)O)CCC(=O)O2)C1=O [N-deacetyl TAN-588 (B type compound)],Solubility in chloroform,Solubility,Sparingly soluble
same,Solubility in diethyl ether,Solubility,Sparingly soluble
same,Solubility in dimethylsulfoxide,Solubility,Sparingly soluble
same,Solubility in ethyl acetate,Solubility,Sparingly soluble
same,Solubility in water,Solubility,Soluble
"CO[C@@]1(NC(=O)CCC[C@@H](N)C(=O)O)C(=O)N2C(C(=O)O)=C(COC(N)=O)CS[C@@H]21 [CMC, reference compound]","inhibition zone, β-Lactamase: Penicillinase",Penicillinase,34
same,"inhibition zone, β-Lactamase: Without addition",Escherichia coli PG 8,34
N[C@H]1CON([C@]2(C(=O)O)CCC(=O)O2)C1=O [N-deacetyl TAN-588 (A type compound)],Solubility in chloroform,Solubility,Sparingly soluble
same,Solubility in diethyl ether,Solubility,Sparingly soluble
same,Solubility in dimethylsulfoxide,Solubility,Sparingly soluble
same,Solubility in ethyl acetate,Solubility,Sparingly soluble
same,Solubility in water,Solubility,Soluble
